# Target: T1, BCL6 (Homo sapiens, UniProt P41182)
# T1 construct: Endogenous BCL6 was tagged with the 11-amino acid SmBiT through CRISPR/Cas9 gene editing; endogenous in cells; host or cells: Su-DHL-4 cells, CRISPR/Cas9 knock-in single cell clone
# Assay: HiBiT cellular degradation assay (Promega) in Su-DHL-4 cells
# Format: cell-based
# Details: concentration to reach 50% degradation; endogenous BCL6 tagged with SmBiT in Su-DHL-4 cells; 24 hr of compound treatment; relative to DMSO control
# Experimental: DC50 (concentration to reach 50% degradation) values were determined from a cellular degradation assay (HiBiT, Promega™) in Su-DHL-4 cells (Table 1). Endogenous BCL6 was tagged with the 11-amino acid SmBiT through CRISPR/Cas9 gene editing and single cell clone selection. After 24 hr of compound treatment, cells were lysed and incubated with LgBiT protein to reconstitute intact nanoluciferase. Substrate was then added and relative luciferase units were measured. Degradation levels for each treatment were taken as a percentage compared to the control, 100% DMSO (Prism).
row,SMILES,DC50 [nM]
1,"CNC(=O)COc1cc2cc3cc(c2n(C)c1=O)OCCC[C@@H]1CN(C[C@H](C)C1(F)F)c1ncc(Cl)c(n1)N3 [Compound 5, 2-(((1^3R, 1^5S)-2^5-Chloro-1^4, 1^4-difluoro-1^5,4^1-dimethyl-4^2-oxo-4^1,4^2-dihydro-5-oxa-3-aza-4(6,8)-quinolina-2(2,4)-pyrimidina-1 (1,3)-piperidinacyclooctaphane-4^3-yl)oxy)-N-methylacetamide]",150
2,"CNC(=O)COc1cc2cc3cc(c2n(C)c1=O)OCCO[C@H]1C[C@@H](C)CN(C1)c1ncc(Cl)c(n1)N3 [Compound 7, 2-(((1^3S, 1^5R)-2^5-chloro-1^5,4^1-dimethyl-4^2-oxo-4^1,4^2-dihydro-5,8-dioxa-3-aza-4(6,8)-quinolina-2(2,4)-pyrimidina-1 (1,3)-piperidinacyclooctaphane-4^3-yl)oxy)-N-methylacetamide]",121
3,"C[C@@H]1CN2C[C@H](CCCOc3cc(cc4c3n(C)c(=O)n4CCC(C)(C)O)Nc3nc2ncc3Cl)C1(F)F [Compound 10, (1^3S,1^5R)-2^5-chloro-1^4,1^4-difluoro-4^1-(3-hydroxy-3-methylbutyl)-1^5,4^3-dimethyl-4^2, 4^3-dihydro-4^1H-5-oxa-3-aza-4(6,4)-benzo[d]imidazola-2(2,4)-pyrimidina-1 (1,3)-piperidinacyclooctaphan-4^2-one]",11
4,"C[C@H]1CN2C[C@@H](CCCOc3cc(cc4c3n(C)c(=O)n4CCC(C)(C)O)Nc3nc2ncc3Cl)C1(F)F [Compound 11, (1^3R, 1^5S)-2^5-Chloro-1^4, 1^4-difluoro-4^1-(3-hydroxy-3-methylbutyl)-1^5,4^3-dimethyl-4^2,4^3-dihydro-4^1H-5-oxa-3-aza-4(6,4)-benzo[d]imidazola-2(2,4)-pyrimidina-1 (1,3)-piperidinacyclooctaphan-4^2-one]",> 400
5,"C[C@@H]1C[C@H]2CN(C1)c1ncc(Cl)c(n1)Nc1cc(c3c(c1)n(CCC(C)(C)O)c(=O)n3C)OCCO2 [Compound 13, (1^3S,1^5R)-2^5-chloro-4^1-(3-hydroxy-3-methylbutyl)-1^5,4^3-dimethyl-4^2,4^3-dihydro-4^1H-5,8-dioxa-3-aza-4(6,4)-benzo[d]imidazola-2(2,4)-pyrimidina-1 (1,3)-piperidinacyclooctaphan-4^2-one]",> 400
6,"C[C@H]1CN2C[C@@H](NCCOc3cc(cc4c3n(C)c(=O)n4CCC(C)(C)O)Nc3nc2ncc3Cl)C1(F)F [Compound 15, (1^3R, 1^5S)-2^5-chloro-1^4,1^4-difluoro-4^1-(3-hydroxy-3-methylbutyl)-1^5,4^3-dimethyl-4^2,4^3-dihydro-41 H-5-oxa-3,8-diaza-4(6,4)-benzo[d]imidazola-2(2,4)-pyrimidina-1 (1,3)-piperidinacyclooctaphan-4^2-one]",82

# These reach a lower DC50. Values come first.
row,DC50 [nM],SMILES
1,1.9,CNC(=O)COc1cc2cc3cc(c2n(C)c1=O)OCCCC1CN(CC(C)C1(F)F)c1ncc(Cl)c(n1)N3 (centres unmarked) [Compound 1]
2,0.34,CNC(=O)COc1cc2cc3cc(c2n(C)c1=O)OCCOC1CC(C)CN(C1)c1ncc(Cl)c(n1)N3 (centres unmarked) [Compound 2]
3,0.36,CNC(=O)COc1cc2cc3cc(c2n(C)c1=O)OCCNC1CN(CC(C)C1(F)F)c1ncc(Cl)c(n1)N3 (centres unmarked) [Compound 3]
4,2,"C[C@H]1C[C@@H]2CN(C1)c1ncc(Cl)c(n1)Nc1cc(c3c(c1)n(CCC(C)(C)O)c(=O)n3C)OCCO2 [Compound 12, (1^3R, 1^5S)-2^5-chloro-4^1-(3-hydroxy-3-methylbutyl)-1^5,4^3-dimethyl-4^2,4^3-dihydro-4^1H-5,8-dioxa-3-aza-4(6,4)-benzo[d]imidazola-2(2,4)-pyrimidina-1 (1,3)-piperidinacyclooctaphan-4^2-one]"
5,2.9,"C[C@@H]1CN2C[C@H](NCCOc3cc(cc4c3n(C)c(=O)n4CCC(C)(C)O)Nc3nc2ncc3Cl)C1(F)F [Compound 14, (1^3S,1^5R)-2^5-chloro-1^4,1^4-difluoro-4^1-(3-hydroxy-3-methylbutyl)-1^5,4^3-dimethyl-4^2,4^3-dihydro-41 H-5-oxa-3,8-diaza-4(6,4)-benzo[d]imidazola-2(2,4)-pyrimidina-1 (1,3)-piperidinacyclooctaphan-4^2-one]"
